Test results: ChEMBL document CHEMBL5365466, “Discovery of Triazolyl Derivatives of Cucurbitacin B Targeting IGF2BP1 against Non-Small Cell Lung Cancer” (J Med Chem, 2023)
Active and inactive are the calls of the source. The rule behind the calls is not given here.

Key:
A549 [1] = test: Induction of apoptosis in human A549 cells assessed as downregulation of BCL-2 expression incubated for 48 hrs by Western blotting analysis; assay type: functional, cell-based
A549 [2] = test: Antitumor activity against human A549 cells xenografted in BALB/c mouse assessed as tumor growth inhibition at 0.5 mg/kg,ip administrated for 21 days; assay type: functional; conditions: A549, 504 h, time 21 day, read-out: TGI
PANC-1 = test: Antiproliferative activity against human PANC-1 cells assessed as cell growth inhibition incubated for 72 hrs by SRB assay; assay type: functional, cell-based; conditions: PANC-1, 72 h
[3] = target: T1, Insulin-like growth factor 2 mRNA-binding protein 1 (Homo sapiens, UniProt Q9NZI8); test: Binding affinity to IGF2BP1 in human A549 cells assessed as protein stabilization at 1 uM at 49 degreeC incubated for 2 hrs by CETSA; assay type: cell-based
BXPC-3 = test: Antiproliferative activity against human BXPC-3 cells assessed as cell growth inhibition incubated for 72 hrs by SRB assay; assay type: functional, cell-based; conditions: BXPC-3, 72 h
SK-OV-3 = test: Antiproliferative activity against human SK-OV-3 cells assessed as cell growth inhibition incubated for 72 hrs by SRB assay; assay type: functional, cell-based; conditions: SK-OV-3, 72 h
A549 [4] = test: Induction of apoptosis in human A549 cells at 0.5 uM incubated for 48 hrs by Annexin V-FITC/PI staining based flow cytometric analysis; assay type: functional
A549 [5] = test: Induction of cell cycle arrest in human A549 cells assessed as accumulation of cells at S phase at 0.1 uM incubated for 24 hrs by PI staining based flow cytometric analysis (reference value: 23 %); assay type: functional
[6] = Selectivity index, ratio of IC50 for antiproliferative activity against human L02 cells to IC50 for antiproliferative activity against human MDA-MB-231 cells; assay type: toxicity, cell-based; conditions: L02 cells versus MDA-MB-231 cells, read-out: Ratio IC50
A549 [7] = test: Induction of apoptosis in human A549 cells assessed as downregulation of Cyclin D1 expression incubated for 48 hrs by Western blotting analysis; assay type: functional, cell-based
[8] = Selectivity index, ratio of IC50 for antiproliferative activity against human L02 cells to IC50 for antiproliferative activity against human HeLa cells; assay type: toxicity, cell-based; conditions: L02 cells versus HeLa cells, read-out: Ratio IC50
[9] = Selectivity index, ratio of IC50 for antiproliferative activity against human L02 cells to IC50 for antiproliferative activity against human MCF7 cells; assay type: toxicity, cell-based; conditions: L02 cells versus MCF7 cells, read-out: Ratio IC50
A549 [10] = test: Antiproliferative activity against wild type human A549 cells assessed as cell growth inhibition incubated for 72 hrs by SRB assay; assay type: functional, cell-based; conditions: A549, 72 h
A549 [11] = test: Antitumor activity against human A549 cells xenografted in BALB/c mouse assessed as decrease in tumor weight at 0.5 mg/kg,ip administrated for 21 days; assay type: functional, organism-based; conditions: time 21.0 day
A549 [12] = test: Antitumor activity against human A549 cells xenografted in BALB/c mouse assessed as vacuole formation at 0.5 mg/kg,ip administrated for 21 days by hematoxylin and eosin staining based microscopic analysis; assay type: functional, organism-based; conditions: time 21.0 day
[13] = target: T1, Insulin-like growth factor 2 mRNA-binding protein 1; test: Binding affinity to His-tagged recombinant IGF2BP1 (unknown origin) assessed as dissociation constant by surface plasmon resonance assay
[14] = Selectivity index, ratio of IC50 for antiproliferative activity against human L02 cells to IC50 for antiproliferative activity against human PANC-1 cells
[15] = target: T1, Insulin-like growth factor 2 mRNA-binding protein 1; test: Binding affinity to human recombinant IGF2BP1 assessed as dissociation constant by microscale thermophoresis analysis
[16] = Selectivity index, ratio of IC50 for antiproliferative activity against human L02 cells to IC50 for antiproliferative activity against human HepG2 cells; assay type: toxicity, cell-based; conditions: L02 cells versus HepG2 cells, read-out: Ratio IC50
A549 [17] = test: Antitumor activity against human A549 cells xenografted in BALB/c mouse assessed as increase in nuclear pyknosis at 0.5 mg/kg,ip administrated for 21 days by hematoxylin and eosin staining based microscopic analysis; assay type: functional, organism-based; conditions: time 21.0 day
[18] = Antiproliferative activity against human L02 cells assessed as cell growth inhibition incubated for 72 hrs by SRB assay; assay type: toxicity, cell-based
HepG2 = test: Antiproliferative activity against human HepG2 cells assessed as cell growth inhibition incubated for 72 hrs by SRB assay; assay type: functional, cell-based; conditions: HepG2, 72 h
HCT-116 = test: Antiproliferative activity against human HCT-116 cells assessed as cell growth inhibition at 1 uM incubated for 72 hrs by SRB assay; assay type: functional
A549 [19] = test: Induction of cell cycle arrest in human A549 cells assessed as accumulation of cells at S phase at 0.2 uM incubated for 24 hrs by PI staining based flow cytometric analysis (reference value: 23 %); assay type: functional
A549 [20] = test: Induction of cell cycle arrest in human A549 cells assessed as accumulation of cells at S phase at 0.5 uM incubated for 24 hrs by PI staining based flow cytometric analysis (reference value: 23 %); assay type: functional

T1 sequence (Q9NZI8 whole entry): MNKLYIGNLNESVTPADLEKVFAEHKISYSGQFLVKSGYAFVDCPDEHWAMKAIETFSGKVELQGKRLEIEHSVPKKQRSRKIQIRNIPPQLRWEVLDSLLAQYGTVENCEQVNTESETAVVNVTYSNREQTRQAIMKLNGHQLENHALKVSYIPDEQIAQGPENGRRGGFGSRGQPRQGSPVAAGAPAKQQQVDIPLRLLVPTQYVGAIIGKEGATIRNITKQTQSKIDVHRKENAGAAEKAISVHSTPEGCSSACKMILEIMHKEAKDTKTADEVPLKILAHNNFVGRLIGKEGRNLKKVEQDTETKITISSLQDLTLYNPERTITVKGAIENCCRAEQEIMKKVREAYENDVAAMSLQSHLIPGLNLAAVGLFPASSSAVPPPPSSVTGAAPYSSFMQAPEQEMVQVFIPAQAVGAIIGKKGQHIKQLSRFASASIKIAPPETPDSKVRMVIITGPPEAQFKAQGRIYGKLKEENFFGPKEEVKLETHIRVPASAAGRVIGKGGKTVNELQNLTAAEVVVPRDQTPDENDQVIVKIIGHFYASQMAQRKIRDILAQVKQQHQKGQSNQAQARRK

For `CC(=O)OC(C)(C)/C=C/C(=O)[C@](C)(O)[C@H]1[C@H](O)C[C@@]2(C)[C@@H]3CC=C4[C@@H](C[C@H](OC(=O)Cn5ncn(-c6ccc(F)cc6)c5=O)C(=O)C4(C)C)[C@]3(C)C(=O)C[C@]12C`, the Activity (A549 [1]) was “Dose-Dependent Effect”, the inhibition in vivo at 0.5 mg/kg (A549 [2]) was 80% and the IC50 (PANC-1) was 88 nM. The Activity [3] was “Active”, the IC50 (BXPC-3) was 18 nM and the IC50 (SK-OV-3) was 54 nM. For the same molecule, the Activity (A549 [4]) was 36.7%, the Activity (A549 [5]) was 31.1% and the selectivity ratio [6] was 2.04. For the same molecule, the Activity (A549 [7]) was “Dose-Dependent Effect”, the selectivity ratio [8] was 6.67 and the selectivity ratio [9] was 1.79. For the same molecule, the IC50 (A549 [10]) was 5 nM, the Activity (A549 [11]) was “Active” and the Activity (A549 [12]) was “Active”. For the same molecule, the Kd [13] was 2.88 nM, the “Ratio IC50” value [14] was 1.14 and the Kd [15] was 10.9 nM. For the same molecule, the selectivity ratio [16] was 1.25, the Activity (A549 [17]) was “Active” and the IC50 at 72 h [18] was 100 nM. For the same molecule, the IC50 (HepG2) was 80 nM, the inhibition at 1 µM (HCT-116) was 84.1% and the Activity (A549 [19]) was 16.6%. For the same molecule, the Activity (A549 [20]) was 8.96%.
